Patent US20130344157A1, “ENHANCEMENT OF THE EFFICACY OF THERAPEUTIC PROTEINS” (North-West University, priority 2007, published 2013)

What was measured:
[1] = tested on: blood glucose levels; assay: Decrease in % blood glucose levels after intra-gastric administration; type: in vivo, Male Sprague Dawley rats; conditions: 50 IU/kg
[2] = tested on: blood glucose levels; assay: Decrease in % blood glucose levels after intra-ileal administration; type: in vivo, Male Sprague Dawley rats; conditions: 50 IU/kg
[3] = tested on: blood glucose levels; assay: % blood glucose decrease after intranasal administration; type: in vivo, Male Sprague Dawley rats; conditions: for Tmax of % blood glucose decrease: sampling times in minutes
Experimental: The cannulation of the carotis communis artery for the collection of blood samples was also performed as described in Example 1 as was the determination of plasma levels and blood glucose levels.

[4] = rat, in vivo
Experimental: Male Sprague Dawley rats with a body mass of between 240 and 336 g were used as experimental in vivo model to investigate the absorption and efficacy enhancing capabilities of the current invention.
In this study, insulin was directly administered into the stomach, ileum or duodenum of the animals. […] Six animals were used for each group in the study. Rats were fasted 18 hours prior to drug administration but water was supplied ad libitum. […] The conditions under which the rats were bred and kept were 21° C. with a relative humidity of 55%, a light intensity of between 350-400 lux one meter above floor level with light cycles of 12 hours light and 12 dark and 18 air changes per minute.
Subcutaneous injection of insulin in one group was used to validate assaying procedures. The normal rat glucose and insulin profile was determined in a group that received only saline; this group acted as biological reference.
Cannulation of the artery carotis communis, ensured that sufficient blood volumes from the same rat at different time intervals could be obtained for analysis. Anaesthesia was induced by halothane and lasted for ±3 hours. All surgical procedures necessary for the cannulation of the carotis communis were carried out while the rats were under anaesthesia. […]

## Insulin in saline: Control: recombinant human insulin (Sigma-Aldrich) in saline solution without any enhancing agent
[1]
  AUC, decrease in the % of blood glucose levels: 275.5
  Tmax, decrease in the % of blood glucose levels: 30 min
[2]
  AUC, decrease in the % of blood glucose levels: 13.81
  Tmax, decrease in the % of blood glucose levels: 10 min
[3]; 8 IU/kg
  AUC of % blood glucose decrease: 46
  Cmax of % blood glucose decrease: 10.03%
  Tmax of % blood glucose decrease: 15
[3]; 8 IU/kg, time 0 min
  % blood glucose decrease: 0%
[3]; 8 IU/kg, time 5 min
  % blood glucose decrease: −1.18%
[3]; 8 IU/kg, time 10 min
  % blood glucose decrease: 5.58%
[3]; 8 IU/kg, time 15 min
  % blood glucose decrease: 10.033%
[3]; 8 IU/kg, time 30 min
  % blood glucose decrease: 5.27%
[3]; 8 IU/kg, time 60 min
  % blood glucose decrease: 3.47%
[3]; 8 IU/kg, time 120 min
  % blood glucose decrease: 2.05%
[3]; 8 IU/kg, time 180 min
  % blood glucose decrease: −26.58%
[3]; 12 IU/kg
  AUC of % blood glucose decrease: 32.2
  Cmax of % blood glucose decrease: 6.48%
  Tmax of % blood glucose decrease: 5
[3]; 12 IU/kg, time 0 min
  % blood glucose decrease: 0%
[3]; 12 IU/kg, time 5 min
  % blood glucose decrease: 6.48%
[3]; 12 IU/kg, time 10 min
  % blood glucose decrease: −0.08%
[3]; 12 IU/kg, time 15 min
  % blood glucose decrease: −4.4%
[3]; 12 IU/kg, time 30 min
  % blood glucose decrease: −8.32%
[3]; 12 IU/kg, time 60 min
  % blood glucose decrease: −13.98%
[3]; 12 IU/kg, time 120 min
  % blood glucose decrease: −30.7%
[3]; 12 IU/kg, time 180 min
  % blood glucose decrease: −40.55%
[4]
  Tmax: 5 min
